# Earlier results in patent US20250345512A1, “COMBINATION SODIUM-GLUCOSE COTRANSPORTER INHIBITOR (SGLTI) INSULIN THERAPY FOR GLYCEMIC CONTROL IN TYPE 1 DIABETES” (University of Virginia Patent Foundation, priority 2022, published 2025).
# Columns and labels:
# T1D = conditions: versus placebo over 18 weeks; cited from earlier work
# T1D patients [1] = conditions: 200 mg and 400 mg; adults with T1D; cited from earlier work
# T1D adults = conditions: pooled analysis of 1575 T1D adults; cited from earlier work
# [2] = 25 mg/day added to experimental AID; 9-14 h outpatient; cited from earlier work
# T1D patients [3] = tested on: T1D patients; parameters: adverse effects, including DKA: reference not given here; conditions: cited from earlier work
structure (smiles),measurement,setting,value
Cc1ccc([C@@H]2O[C@H](CO)[C@@H](O)[C@H](O)[C@H]2O)cc1Cc1ccc(-c2ccc(F)cc2)s1 [canagliflozin],indices of glycemic variability and treatment satisfaction,T1D,improved indices of glycemic variability and improvement in treatment satisfaction
CCOc1ccc(Cc2cc([C@@H]3O[C@H](SC)[C@@H](O)[C@H](O)[C@H]3O)ccc2Cl)cc1 [sotagliflozin],glycemic control and weight,T1D patients [1],improved glycemic control and weight
same,short- and long-term renal hemodynamic changes,T1D adults,reductions in urine albumin:creatinine
OC[C@H]1O[C@@H](c2ccc(Cl)c(Cc3ccc(O[C@H]4CCOC4)cc3)c2)[C@H](O)[C@@H](O)[C@@H]1O [empagliflozin],need for pre-meal carbohydrate counting,[2],reduce the need for pre-meal carbohydrate counting
same,adverse effects,T1D patients [3]; 2.5 mg,indistinguishable from placebo
same,"adverse effects, including DKA",T1D patients [3]; 10 mg and 25 mg daily dose,two to three fold higher
same,"body weight, systolic blood pressure, and diastolic blood pressure","T1D patients [3]; 1707 T1D patients, 26 weeks of SGLT2i treatment",significant reductions
same,hemoglobin A1c and hypoglycemia,T1D patients [3]; EASE trials,improvements in hemoglobin Ale without increase in hypoglycemia
